{"source": "patent EP4729516A1", "about": "“S[…] DERIVATIVE, INTERMEDIATE, PREPARATION METHOD THEREFOR AND USE THEREOF” (Jiangsu NHWA Pharmaceutical Co., Ltd, priority 2023, dated 2024)", "key": {"[1]": {"system": "Male SD rats", "assay": "Hypnotic efficacy: loss of righting reflex (LORR) in rats", "format": "in vivo", "protocol": "The sequential method was used to determine the ED50 (median effective dose) for the loss of righting reflex (LORR) by the compounds of the present disclosure in rats: Male SD rats, weighing 200-300 grams, were used. Each compound was dissolved in normal saline and administered via tail vein injection at an initial dose at a constant injection rate over 10 s (one rat per dose). […] This process was repeated, and the results were recorded in the AOT425 Statpm software until the software could calculate the ED50, at which point the experiment was terminated. The hypnotic efficacy of the compounds of the present disclosure was evaluated using ED50 with lower ED50 values indicating stronger efficacy.\nComparison of onset time and duration: Male SD rats, weighing 200-300 grams, were used. Each compound was dissolved in normal saline and administered via tail vein injection at a constant injection rate over 10 s, with 10 rats per group. […] The onset time and duration were recorded.\nThe onset time refers to the period from the completion of injection to when the rat is placed in a supine position, with the criterion for loss of righting reflex defined as the rat's inability to spontaneously revert to a prone position using its forelimbs and maintained for ≥10 s, which serves as an indicator of compound efficacy; the duration refers to the sustained period during which the rat remains in a state of losing righting reflex. The spontaneous recovery of the righting reflex in the rat is considered the cessation of the efficacy."}, "[2]": {"system": "Male SD rats", "assay": "Fluctuations in blood pressure and heart rate after administration", "format": "in vivo", "protocol": "Male SD rats, weighing 250-300 g, with 4 rats per group, were maintained under general anesthesia by isoflurane inhalation. Femoral artery cannulation was performed, and blood pressure and heart rate were monitored using a Powerlab data acquisition and analysis system. 30 min after the baseline values stabilized, the baseline mean arterial pressure (MAP0) and baseline heart rate (HR0) were measured. The rats were given a solution of each compound in normal saline via tail vein injection (the dose of each compound was the same as in Test Example 3, with rapid intravenous injection over 10 s). Blood pressure and heart rate were continuously recorded for 90 min. MAP^+ (the difference between the maximum mean arterial pressure (MAPmax) and MAP0), MAP^-(the difference between the minimum mean arterial pressure (MAPmin) and MAP0), and HR^- (the difference between the minimum heart rate (HRmin) and HR0) within 90 min were calculated. For calculation, the maximum increase rate of mean arterial pressure = MAP^+/MAP0 × 100%; the maximum decrease rate of mean arterial pressure = MAP^-/MAP0 × 100%; and the maximum decrease rate of heart rate = HR^-/HR0 × 100%."}, "[3]": {"settings": "in words, compared with dexmedetomidine hydrochloride, rats"}, "[4]": {"settings": "loss of righting reflex, male SD rats, tail vein injection, dose twice the ED50, 10 rats per group"}, "[5]": {"settings": "isoflurane-anesthetized male SD rats, tail vein injection, dose as in Test Example 3"}, "[6]": {"settings": "isoflurane-anesthetized male SD rats, tail vein injection, dose as in Test Example 3, within 90 min"}}, "data": [{"smiles": "CC(c1c[nH]cn1)c1cccc2c1COC2", "note": "(stereo not drawn) [Compound 5, 4-[1-(1,3-Dihydroisobenzofuran-4-yl)ethyl]-1H-imidazole]", "values": [{"measurement": "ED50", "setting": "[1]; Rattus norvegicus, loss of righting reflex, male SD rats, tail vein injection over 10 s, sequential method", "result": 0.0625, "unit": "mg/kg"}, {"measurement": "Duration", "setting": "[1]; [3]", "result": "significantly shorter"}, {"measurement": "hypnotic onset time", "setting": "[1]; [3]", "result": "comparable to or slightly longer"}, {"measurement": "Duration", "setting": "[1]; [4]", "result": "531.10±559.16", "unit": "S"}, {"measurement": "Onset time", "setting": "[1]; [4]", "result": "99.20±29.98", "unit": "S"}, {"measurement": "induce sleep in rats", "setting": "[1]; time to induce sleep, rats, dose twice the ED50", "result": "≤ 5", "unit": "min"}, {"measurement": "maximum decrease rates of HR", "setting": "[2]; [3]", "result": "lower"}, {"measurement": "maximum increase rates of MAP", "setting": "[2]; [3]", "result": "lower"}, {"measurement": "recovery of HR", "setting": "[2]; [3]", "result": "faster"}, {"measurement": "HR decrease Duration", "setting": "[2]; [5]", "result": 30, "unit": "min"}, {"measurement": "MAP increase Duration", "setting": "[2]; [5]", "result": 2, "unit": "min"}, {"measurement": "HR decrease Maximum decrease rate", "setting": "[2]; [6]", "result": "24.7±4.5", "unit": "%"}, {"measurement": "MAP decrease Maximum decrease rate", "setting": "[2]; [6]", "result": "7.4±9.2", "unit": "%"}, {"measurement": "MAP increase Maximum increase rate", "setting": "[2]; [6]", "result": "19.9±6.3", "unit": "%"}, {"measurement": "decreases in MAP", "setting": "[2]; no significant decreases greater than the stated value, rats", "result": "≤ 10", "unit": "%"}]}]}
